# Data published in patent publication US12281057B2 (VERTEX PHARMACEUTICALS INCORPORATED, priority 2017, dated 2025).
# Target: truncated form of human NaV 1.8 with full channel activity (Homo sapiens, UniProt Q9Y5Y9)
# Experiment: E-VIPR Assay Method A for detecting and measuring Nav inhibition (HEK cells, membrane potential FRET dyes, electrical stimulation)
# Format: cell-based
# Conditions: HEK cells expressing human NaV 1.8, HS (human serum) in compound loading buffer, 11 point dose response, top dose 3 μM, Table 20, read-out: Nav 1.8 MedChem Optical Assay EVIPR Assay Method A HS IC50
# In short: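 HEK cells expressing truncated human NaV1.8, loaded with CC2-DMPE/DiSBAC6(3) FRET dyes, incubated 30 min at room temp with compound (0.625% DMSO), then electrically stimulated (1.25 A biphasic, 10 Hz, 10 s). Inhibition from 460/580 nm ratio Rf/Ri, normalised to positive and DMSO controls.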
# truncated form of human NaV 1.8 with full channel activity, sequence (Q9Y5Y9 126-1722 limits assumed): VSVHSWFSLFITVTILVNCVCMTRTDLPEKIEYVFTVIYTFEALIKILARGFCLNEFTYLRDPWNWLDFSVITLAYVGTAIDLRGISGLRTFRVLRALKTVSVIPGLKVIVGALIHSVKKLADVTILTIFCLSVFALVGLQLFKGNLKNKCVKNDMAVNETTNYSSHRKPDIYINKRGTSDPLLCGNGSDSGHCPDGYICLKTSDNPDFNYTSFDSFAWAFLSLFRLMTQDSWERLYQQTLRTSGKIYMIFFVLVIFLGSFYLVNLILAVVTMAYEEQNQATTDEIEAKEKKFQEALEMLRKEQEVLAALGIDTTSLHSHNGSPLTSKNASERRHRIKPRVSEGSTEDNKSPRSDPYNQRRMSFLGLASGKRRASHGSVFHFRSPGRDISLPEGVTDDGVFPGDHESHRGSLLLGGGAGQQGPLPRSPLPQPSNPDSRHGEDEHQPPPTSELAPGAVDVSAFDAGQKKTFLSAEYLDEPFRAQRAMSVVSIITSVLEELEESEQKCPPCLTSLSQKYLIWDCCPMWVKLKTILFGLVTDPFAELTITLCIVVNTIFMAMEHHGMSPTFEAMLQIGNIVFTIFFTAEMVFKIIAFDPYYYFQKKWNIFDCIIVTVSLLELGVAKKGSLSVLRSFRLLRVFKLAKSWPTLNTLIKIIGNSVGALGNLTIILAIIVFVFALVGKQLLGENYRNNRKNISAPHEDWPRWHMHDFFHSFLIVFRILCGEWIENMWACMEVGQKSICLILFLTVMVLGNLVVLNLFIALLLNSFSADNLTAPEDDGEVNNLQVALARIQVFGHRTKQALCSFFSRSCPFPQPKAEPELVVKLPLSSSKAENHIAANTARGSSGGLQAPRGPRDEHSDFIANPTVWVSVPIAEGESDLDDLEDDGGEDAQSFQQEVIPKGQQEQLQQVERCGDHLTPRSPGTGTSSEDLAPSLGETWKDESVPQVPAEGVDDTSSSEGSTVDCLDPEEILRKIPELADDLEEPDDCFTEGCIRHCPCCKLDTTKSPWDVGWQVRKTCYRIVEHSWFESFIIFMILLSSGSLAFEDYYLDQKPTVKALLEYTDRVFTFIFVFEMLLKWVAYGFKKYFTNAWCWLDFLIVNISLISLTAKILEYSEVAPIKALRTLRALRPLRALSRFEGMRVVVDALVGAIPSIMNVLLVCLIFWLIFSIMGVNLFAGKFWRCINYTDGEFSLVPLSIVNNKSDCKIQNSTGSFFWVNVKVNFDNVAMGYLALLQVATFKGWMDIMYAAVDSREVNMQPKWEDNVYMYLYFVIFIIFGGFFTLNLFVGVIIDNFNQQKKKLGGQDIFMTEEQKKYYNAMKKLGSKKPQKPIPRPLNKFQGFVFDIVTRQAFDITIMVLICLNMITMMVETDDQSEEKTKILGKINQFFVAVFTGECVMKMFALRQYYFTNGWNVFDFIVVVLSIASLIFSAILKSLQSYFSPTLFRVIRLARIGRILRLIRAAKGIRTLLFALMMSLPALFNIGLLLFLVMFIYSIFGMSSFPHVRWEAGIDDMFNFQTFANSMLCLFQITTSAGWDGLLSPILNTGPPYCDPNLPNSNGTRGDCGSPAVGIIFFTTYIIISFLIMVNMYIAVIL
row,IC50 [nM],Compound
1,7,"NC(=O)c1cc(NC(=O)c2c(Oc3ccc(OC(F)(F)F)cc3)ccc(C(F)(F)F)c2F)ccc1F [Compound 15, N-(3-carbamoyl-4-fluoro-phenyl)-2-fluoro-6-[4-(trifluoromethoxy)phenoxy]-3-(trifluoromethyl)benzamide]"
2,4,"COc1cc(OC(F)(F)F)ccc1Oc1cc(F)c(F)c(F)c1C(=O)Nc1ccc(F)c(C(N)=O)c1 [Compound 11, N-(3-carbamoyl-4-fluoro-phenyl)-2,3,4-trifluoro-6-[2-methoxy-4-(trifluoromethoxy)phenoxy]benzamide]"
3,2,"COc1cc(OC(F)(F)F)ccc1Oc1ccc(C(F)(F)F)c(F)c1C(=O)Nc1ccnc(C(N)=O)c1 [Compound 4, 4-[[2-fluoro-6-[2-methoxy-4-(trifluoromethoxy)phenoxy]-3-(trifluoromethyl)benzoyl]amino]pyridine-2-carboxamide]"
4,3,"COc1cc(OC(F)(F)F)ccc1Oc1ccc(C(F)F)c(F)c1C(=O)Nc1ccc(F)c(C(N)=O)c1 [Compound 7, N-(3-carbamoyl-4-fluoro-phenyl)-3-(difluoromethyl)-2-fluoro-6-[2-methoxy-4-(trifluoromethoxy)phenoxy]benzamide]"
5,3,"[2H]C([2H])([2H])Oc1cc(OC(F)(F)F)ccc1Oc1ccc(C(F)(F)F)c(F)c1C(=O)Nc1ccnc(C(N)=O)c1 [Compound 6, 4-[[2-fluoro-6-[2-(trideuteriomethoxy)-4-(trifluoromethoxy)phenoxy]-3-(trifluoromethyl)benzoyl]amino]pyridine-2-carboxamide]"

# Same assay, conditions: HEK cells expressing human NaV 1.8, HS (human serum) in compound loading buffer, 11 point dose response, top dose 3 μM, Table 20A, read-out: Nav 1.8 MedChem Optical Assay EVIPR Assay Method A HS IC50
row,IC50 [nM],Compound
1,108,"COc1cc(OC(F)(F)F)ccc1Oc1cc(C(F)(F)F)ccc1C(=O)Nc1cccc(C(N)=O)c1 [Compound 28, N-(3-Carbamoylphenyl)-2-[2-methoxy-4-(trifluoromethoxy)phenoxy]-4-(trifluoromethyl)benzamide]"
2,69,"NC(=O)c1cc(NC(=O)c2cc(C(F)(F)C(F)(F)F)ccc2Oc2ccc(OC(F)(F)F)cc2)ccc1F [Compound 79, N-(3-Carbamoyl-4-fluoro-phenyl)-5-(1,1,2,2,2-pentafluoroethyl)-2-[4-(trifluoromethoxy)phenoxy]benzamide]"
3,34,"COc1cc(OC(F)(F)F)ccc1Oc1cccc(C(F)(F)F)c1C(=O)Nc1ccc(F)c(C(N)=O)c1 [Compound 40, N-(3-Carbamoyl-4-fluoro-phenyl)-2-[2-methoxy-4-(trifluoromethoxy)phenoxy]-6-(trifluoromethyl)benzamide]"
4,38,"[2H]C([2H])([2H])Oc1cc(OC(F)(F)F)ccc1Oc1cc(C(F)(F)F)cc(C(F)(F)F)c1C(=O)Nc1ccnc(C(N)=O)c1 [Compound 175, 4-[[2-[2-(Trideuteriomethoxy)-4-(trifluoromethoxy)phenoxy]-4,6-bis(trifluoromethyl)benzoyl]amino]pyridine-2-carboxamide]"
5,27,"COc1cc(OC(F)(F)F)ccc1Oc1cc(Cl)cc(F)c1C(=O)Nc1cc(C(N)=O)ncc1C [Compound 130, 4-[[4-Chloro-2-fluoro-6-[2-methoxy-4-(trifluoromethoxy)phenoxy]benzoyl]amino]-5-methyl-pyridine-2-carboxamide]"
6,21,"Cc1cnc(C(N)=O)cc1NC(=O)c1c(Oc2ccc(OC(F)(F)F)c(F)c2)ccc(C(F)(F)F)c1F [Compound 246, 4-[[2-fluoro-6-[3-fluoro-4-(trifluoromethoxy)phenoxy]-3-(trifluoromethyl)benzoyl]amino]-5-methyl-pyridine-2-carboxamide]"
7,17,"[2H]C([2H])([2H])Oc1cc(OC(F)(F)F)ccc1Oc1ccc(OC(F)F)c(F)c1C(=O)Nc1ccnc(C(N)=O)c1 [Compound 155, 4-[[3-(Difluoromethoxy)-2-fluoro-6-[2-(trideuteriomethoxy)-4-(trifluoromethoxy)phenoxy]benzoyl]amino]pyridine-2-carboxamide]"
8,1450,"CNC(=O)c1cc(NC(=O)c2cnc(C(F)(F)F)cc2Oc2ccc(OC(F)(F)F)cc2OC)cc(C)n1 [Compound 265, 4-[[4-[2-methoxy-4-(trifluoromethoxy)phenoxy]-6-(trifluoromethyl)pyridine-3-carbonyl]amino]-N,6-dimethyl-pyridine-2-carboxamide]"
9,215,"NC(=O)c1cc(NC(=O)c2cnc(C3CC3)cc2Oc2ccc(OC(F)(F)F)c(Cl)c2)ccc1F [Compound 36, N-(3-Carbamoyl-4-fluoro-phenyl)-4-[3-chloro-4-(trifluoromethoxy)phenoxy]-6-cyclopropyl-pyridine-3-carboxamide]"
10,11,"[2H]C([2H])([2H])Oc1c(Oc2ccc(Cl)c(F)c2C(=O)Nc2cc(C(N)=O)ncc2C)ccc(OC(F)(F)F)c1F [Compound 240, 4-[[3-chloro-2-fluoro-6-[3-fluoro-2-(trideuteriomethoxy)-4-(trifluoromethoxy)phenoxy]benzoyl]amino]-5-methyl-pyridine-2-carboxamide]"
11,84,"COc1cc(OC(F)(F)F)ccc1Oc1cc([C@H]2C[C@@H]2C)ncc1C(=O)Nc1ccc(F)c(C(N)=O)c1 (single isomer, unassigned) [Compound 113]"
12,180,"COc1cc(OC(F)(F)F)ccc1Oc1cc2c(cc1C(=O)Nc1ccnc(C(N)=O)c1)OC(F)(F)O2 [Compound 121, 4-[[2,2-Difluoro-6-[2-methoxy-4-(trifluoromethoxy)phenoxy]-1,3-benzodioxole-5-carbonyl]amino]pyridine-2-carboxamide]"
13,140,"NC(=O)c1cc(NC(=O)c2c(Oc3ccc(OC(F)F)cc3F)ccc(C(F)(F)F)c2F)ccn1 [Compound 136, 4-[[6-[4-(Difluoromethoxy)-2-fluoro-phenoxy]-2-fluoro-3-(trifluoromethyl)benzoyl]amino]pyridine-2-carboxamide]"
14,23,"NC(=O)c1cc(NC(=O)c2c(Oc3ccc(OC(F)(F)F)cc3)ccc(C(F)(F)F)c2F)ccn1 [Compound 48, 4-[[2-fluoro-6-[4-(trifluoromethoxy)phenoxy]-3-(trifluoromethyl)benzoyl]amino]pyridine-2-carboxamide]"
15,1500,"NC(=O)c1cc(NC(=O)c2ccc(OC(F)(F)F)cc2Oc2ccc(OC(F)(F)F)cc2)ccn1 [Compound 149, 4-[[4-(Trifluoromethoxy)-2-[4-(trifluoromethoxy)phenoxy]benzoyl]amino]pyridine-2-carboxamide]"
16,9,NC(=O)c1cc(NC(=O)c2c(Oc3ccc(OC(F)(F)F)cc3Cl)ccc(C(F)(F)F)c2F)ccn1 [Compound 51]
17,100,COc1cc(OC(F)(F)F)ccc1Oc1ccc(C(F)(F)F)c(F)c1C(=O)Nc1cc(C(N)=O)c(F)cc1C [Compound 118]
18,250,"COc1ncccc1Oc1cc(Cl)c(Cl)cc1C(=O)Nc1ccc(F)c(C(N)=O)c1 [Compound 35, N-(3-carbamoyl-4-fluoro-phenyl)-4,5-dichloro-2-[(2-methoxy-3-pyridyl)oxy]benzamide]"
19,180,"COc1cc(OC(F)(F)F)ccc1Oc1cncc(F)c1C(=O)Nc1ccc(F)c(C(N)=O)c1 [Compound 117, N-(3-Carbamoyl-4-fluoro-phenyl)-3-fluoro-5-[2-methoxy-4-(trifluoromethoxy)phenoxy]pyridine-4-carboxamide]"
20,250,"[2H]C([2H])([2H])Oc1c(Oc2ccc(OC(F)(F)F)c(NC)c2C(=O)Nc2ccnc(C(=O)NC)c2)ccc(OC(F)(F)F)c1F [Compound 230, 4-[[6-[3-Fluoro-2-(trideuteriomethoxy)-4-(trifluoromethoxy)phenoxy]-2-(methylamino)-3-(trifluoromethoxy)benzoyl]amino]-N-methyl-pyridine-2-carboxamide]"
21,92,"COc1cc(OC(F)(F)F)ccc1Oc1ccc(C(F)(F)F)c(F)c1C(=O)Nc1ccc(C(N)=O)cc1F [Compound 82, N-(4-carbamoyl-2-fluoro-phenyl)-2-fluoro-6-[2-methoxy-4-(trifluoromethoxy)phenoxy]-3-(trifluoromethyl)benzamide]"
22,400,"NC(=O)c1cc(NC(=O)c2cnc(C3CC3)cc2Oc2ccc(OC(F)(F)F)c(F)c2)ccc1F [Compound 42, N-(3-Carbamoyl-4-fluoro-phenyl)-6-cyclopropyl-4-[3-fluoro-4-(trifluoromethoxy)phenoxy]pyridine-3-carboxamide]"
23,18,"COc1cc(OC(F)(F)F)ccc1Oc1ccc(F)c(F)c1C(=O)Nc1ccc(F)c(C(N)=O)c1 [Compound 55, N-(3-Carbamoyl-4-fluoro-phenyl)-2,3-difluoro-6-[2-methoxy-4-(trifluoromethoxy)phenoxy]benzamide]"
24,700,"COc1ccc(Oc2cccc(C(F)(F)F)c2C(=O)Nc2ccc(F)c(C(N)=O)c2)c(OC)c1 [Compound 38, N-(3-Carbamoyl-4-fluoro-phenyl)-2-(2,4-dimethoxyphenoxy)-6-(trifluoromethyl)benzamide]"
25,145,"COc1cc(OC(F)(F)F)ccc1Oc1cc(C2CC2)c(F)cc1C(=O)Nc1ccnc(C(N)=O)c1 [Compound 116, 4-[[4-Cyclopropyl-5-fluoro-2-[2-methoxy-4-(trifluoromethoxy)phenoxy]benzoyl]amino]pyridine-2-carboxamide]"
26,8,"COc1cc(Oc2ccc(OC(F)(F)F)cc2)c(C(=O)Nc2ccc(F)c(C(N)=O)c2)c(F)c1C(F)(F)F [Compound 216, N-(3-Carbamoyl-4-fluoro-phenyl)-2-fluoro-4-methoxy-6-[4-(trifluoromethoxy)phenoxy]-3-(trifluoromethyl)benzamide]"
27,600,"COc1cc(OC(F)(F)F)ccc1Oc1cc(Cl)cc(OC)c1C(=O)Nc1ccc(C(N)=O)nc1 [Compound 204, 5-[[4-Chloro-2-methoxy-6-[2-methoxy-4-(trifluoromethoxy)phenoxy]benzoyl]amino]pyridine-2-carboxamide]"
